Reference: patent US6914045B2, “Glycopeptide antibiotics” (Wyeth Holdings Corporation, priority 2001, dated 2005)
≈ marks a conversion by molar mass, not a printed value.

Key:
Escherichia coli = experiment: in vitro antibacterial evaluation, MIC by broth dilution; assay type: cell-based; conditions: 18 hours at 35° C.
Outline: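 Broth dilution in Muller-Hinton II medium per NCCLS standard M7-A2, with an inoculum of 5×10^5 CFU/mL and antibiotic tested over 64-0.06 μg/mL. MIC was taken as the lowest concentration inhibiting visible growth.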

[1] = anatomic pathology (histopathology of heart and kidney) in mice; assay type: in vivo; conditions: CD-1 mice, 20 mg/kg intravenously daily for 9 days, necropsy day 10, microscopic histopathology
Method: Samples of tissues from necropsied mice were formalin-fixed, paraffin-embedded, sectioned, stained with hematoxylin and eosin, and examined microscopically. Histopathologic findings were recorded. These findings were subjectively graded on a scale corresponding to slight, mild, moderate, marked and severe as compared to untreated controls.

Staphylococcus sp. = experiment: in vitro antibacterial evaluation, MIC by broth dilution; assay type: cell-based; conditions: broth dilution, 18 hours at 35° C.; for MIC Staphylococcus haemolyticus (GC 4546): strain GC 4546
Outline: (§1)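 Following National Committee for Clinical Laboratory Standards recommendations (M7-A2), susceptibility was measured by dilution in Muller-Hinton II […]. Bacteria were seeded at 5×10^5 CFU/mL against compound concentrations from 64 down to 0.06 μg/mL.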

Enterococcus sp. = experiment: as above; assay type: cell-based; conditions: broth dilution, 18 hours at 35° C.
Outline: as §1

Streptococcus sp. = experiment: as above; assay type: cell-based; conditions: broth dilution, 18 hours at 35° C.
Outline: as §1

CC(c1ccccc1)C1NC(=O)CNC(=O)C(CO)NC(=O)C(C(O)C2CN(Cc3ccc(C(C)(C)C)cc3)C(=N)N2C2OC(CO)C(O)C(O)C2O)NC(=O)C(C(O)C2CNC(=N)N2)NC(=O)C(Cc2ccc(OC3OC(CO)C(OC4OC(CO)C(O)C(O)C4O)C(O)C3O)cc2)NC1=O (stereo not drawn) [Example 60, Cyclo[glycyl-β-methylphenylalanyl-O-(4-O-hexopyranosylhexopyranosyl)tyrosl-(2-iminoimidazolidin-4-yl)seryl-3-[1-(4-tert-butylbenzyl)-3-hexopyranosyl-2-iminoimidazolidin-4-yl]-serylseryl]]
MIC Escherichia coli (ATCC 25922) (Escherichia coli): >128 µg/mL
MIC Escherichia coli (GC 4559) (Escherichia coli): >128 µg/mL
MIC Escherichia coli (GC 4560) (Escherichia coli): 16 µg/mL (≈ 11.1 µM)
Anatomical Pathology (Day 10), Heart [1]: 0
Anatomical Pathology (Day 10), Kidney [1]: 0
MIC Staphylococcus aureus (ATCC 29213) (Staphylococcus sp.; strain ATCC 29213): >128 µg/mL
MIC Staphylococcus aureus (GC 1131) (Staphylococcus sp.; strain GC 1131): >128 µg/mL
MIC Staphylococcus aureus (GC 3051) (Staphylococcus sp.; strain GC 3051): >128 µg/mL
MIC Staphylococcus aureus (GC 3053) (Staphylococcus sp.; strain GC 3053): >128 µg/mL
MIC Staphylococcus aureus (GC 4541) (Staphylococcus sp.; strain GC 4541): >128 µg/mL
MIC Staphylococcus aureus (GC 4542) (Staphylococcus sp.; strain GC 4542): >128 µg/mL
MIC Staphylococcus aureus-SMITH (GC 4543) (Staphylococcus sp.; strain GC 4543): >128 µg/mL
MIC Staphylococcus aureus (GC 4544) (Staphylococcus sp.; strain GC 4544): >128 µg/mL
MIC Staphylococcus aureus (GC 4545) (Staphylococcus sp.; strain GC 4545): >128 µg/mL
MIC Staphylococcus haemolyticus (GC 4546) (Staphylococcus sp.): >128 µg/mL
MIC Coagulase Negative Staphylococcus (GC 4547) (Staphylococcus sp.; strain GC 4547): >128 µg/mL
MIC Coagulase Negative Staphylococcus (GC 4548) (Staphylococcus sp.; strain GC 4548): >128 µg/mL
MIC Coagulase Negative Staphylococcus (GC 4549) (Staphylococcus sp.; strain GC 4549): >128 µg/mL
MIC Coagulase Negative Staphylococcus (GC 4551) (Staphylococcus sp.; strain GC 4551): >128 µg/mL
MIC Coagulase Negative Staphylococcus (GC 6257) (Staphylococcus sp.; strain GC 6257): >128 µg/mL
MIC Enterococcus avium (GC 4558) (Enterococcus sp.; Enterococcus avium (GC 4558)): 128 µg/mL (≈ 88.8 µM)
MIC Enterococcus faecalis (ATCC 29212) (Enterococcus sp.; Enterococcus faecalis (ATCC 29212)): >128 µg/mL
MIC Enterococcus faecalis (GC 4552) (Enterococcus sp.; Enterococcus faecalis (GC 4552)): >128 µg/mL
MIC Enterococcus faecalis (GC 4553) (Enterococcus sp.; Enterococcus faecalis (GC 4553)): 128 µg/mL (≈ 88.8 µM)
MIC Enterococcus faecalis (GC 4554) (Enterococcus sp.; Enterococcus faecalis (GC 4554)): >128 µg/mL
MIC Enterococcus faecalis (GC 6189) (Enterococcus sp.; Enterococcus faecalis (GC 6189)): >128 µg/mL
MIC Enterococcus faecium (GC 2243) (Enterococcus sp.; Enterococcus faecium (GC 2243)): >128 µg/mL
MIC Enterococcus faecium (GC 4556) (Enterococcus sp.; Enterococcus faecium (GC 4556)): >128 µg/mL
MIC Enterococcus faecium (GC 4557) (Enterococcus sp.; Enterococcus faecium (GC 4557)): 128 µg/mL (≈ 88.8 µM)
MIC Enterococcus avium (GC 4558) (Enterococcus sp.): 128 µg/mL (≈ 88.8 µM)
MIC Enterococcus faecalis (ATCC 29212) (Enterococcus sp.): >128 µg/mL
MIC Enterococcus faecalis (GC 2242) (Enterococcus sp.): >128 µg/mL
MIC Enterococcus faecalis (GC 2691) (Enterococcus sp.): >128 µg/mL
MIC Enterococcus faecalis (GC 3059) (Enterococcus sp.): >128 µg/mL
MIC Enterococcus faecalis (GC 4552) (Enterococcus sp.): >128 µg/mL
MIC Enterococcus faecalis (GC 4553) (Enterococcus sp.): 128 µg/mL (≈ 88.8 µM)
MIC Enterococcus faecalis (GC 4554) (Enterococcus sp.): >128 µg/mL
MIC Enterococcus faecalis (GC 6189) (Enterococcus sp.): >128 µg/mL
MIC Enterococcus faecium (GC 2243) (Enterococcus sp.): >128 µg/mL
MIC Enterococcus faecium (GC 4556) (Enterococcus sp.): >128 µg/mL
MIC Enterococcus faecium (GC 4557) (Enterococcus sp.): 128 µg/mL (≈ 88.8 µM)
MIC Enterococcus faecalis (GC 2242) (Enterococcus sp.; strain GC 2242): >128 µg/mL
MIC Enterococcus faecalis (GC 2691) (Enterococcus sp.; strain GC 2691): >128 µg/mL
MIC Enterococcus faecalis (GC 3059) (Enterococcus sp.; strain GC 3059): >128 µg/mL
MIC Streptococcus agalactiae (GC 4564) (Streptococcus sp.): >128 µg/mL
MIC Streptococcus pneumoniae (ATCC 6301) (Streptococcus sp.): 128 µg/mL (≈ 88.8 µM)
MIC Streptococcus pneumoniae (GC 1894) (Streptococcus sp.): 64 µg/mL (≈ 44.4 µM)
MIC Streptococcus pneumoniae (GC 4565) (Streptococcus sp.): 128 µg/mL (≈ 88.8 µM)
MIC Streptococcus pyogenes (GC 4563) (Streptococcus sp.): >128 µg/mL
MIC Streptococcus pneumoniae (ATCC 6301) (Streptococcus sp.; strain ATCC 6301): 128 µg/mL (≈ 88.8 µM)
MIC Streptococcus pneumoniae (GC 1894) (Streptococcus sp.; strain GC 1894): 64 µg/mL (≈ 44.4 µM)
MIC Streptococcus pyogenes (GC 4563) (Streptococcus sp.; strain GC 4563): >128 µg/mL
MIC Streptococcus agalactiae (GC 4564) (Streptococcus sp.; strain GC 4564): >128 µg/mL
MIC Streptococcus pneumoniae (GC 4565) (Streptococcus sp.; strain GC 4565): 128 µg/mL (≈ 88.8 µM)

CN=C1N(C)CC(C(O)C2NC(=O)C(Cc3ccc(OC4OC(CO)C(OC5OC6COC7(OC6C(O)C5O)C5CC6CC(C5)CC7C6)C(O)C4O)cc3)NC(=O)C(C(C)c3ccccc3)NC(=O)CNC(=O)C(CO)NC(=O)C(C(O)C3CN(C)C(=NC)N3C3OC(CO)C(O)C(O)C3O)NC2=O)N1C (stereo not drawn) [Example 81, Cyclo[glycyl-β-methylphenylalanyl-O-[4-O-[4,6-O-(2-adamantylidene)hexopyranosyl]hexopyranosyl]tyrosyl-3-[1,3-dimethyl-2-(methylimino)imidazolidin-4-yl]seryl-3-[3-hexopyranosyl-1-methyl-2-(methylimino)imidazolidin-4-yl]serylseryl]]
MIC Escherichia coli (ATCC 25922) (Escherichia coli): >128 µg/mL
MIC Escherichia coli (GC 4559) (Escherichia coli): >128 µg/mL
MIC Escherichia coli (GC 4560) (Escherichia coli): 128 µg/mL (≈ 85.5 µM)
Anatomical Pathology (Day 10), Heart [1]: 0
Anatomical Pathology (Day 10), Kidney [1]: 0
MIC Staphylococcus haemolyticus (GC 4546) (Staphylococcus sp.): >128 µg/mL
MIC Enterococcus avium (GC 4558) (Enterococcus sp.): 128 µg/mL (≈ 85.5 µM)
MIC Enterococcus faecalis (ATCC 29212) (Enterococcus sp.): >128 µg/mL
MIC Enterococcus faecalis (GC 2242) (Enterococcus sp.): >128 µg/mL
MIC Enterococcus faecalis (GC 2691) (Enterococcus sp.): >128 µg/mL
MIC Enterococcus faecalis (GC 3059) (Enterococcus sp.): >128 µg/mL
MIC Enterococcus faecalis (GC 4552) (Enterococcus sp.): >128 µg/mL
MIC Enterococcus faecalis (GC 4553) (Enterococcus sp.): 128 µg/mL (≈ 85.5 µM)
MIC Enterococcus faecalis (GC 4554) (Enterococcus sp.): >128 µg/mL
MIC Enterococcus faecalis (GC 6189) (Enterococcus sp.): >128 µg/mL
MIC Enterococcus faecium (GC 2243) (Enterococcus sp.): >128 µg/mL
MIC Enterococcus faecium (GC 4556) (Enterococcus sp.): >128 µg/mL
MIC Enterococcus faecium (GC 4557) (Enterococcus sp.): 128 µg/mL (≈ 85.5 µM)
MIC Streptococcus agalactiae (GC 4564) (Streptococcus sp.): 128 µg/mL (≈ 85.5 µM)
MIC Streptococcus pneumoniae (ATCC 6301) (Streptococcus sp.): >128 µg/mL
MIC Streptococcus pneumoniae (GC 1894) (Streptococcus sp.): 128 µg/mL (≈ 85.5 µM)
MIC Streptococcus pneumoniae (GC 4565) (Streptococcus sp.): >128 µg/mL
MIC Streptococcus pyogenes (GC 4563) (Streptococcus sp.): >128 µg/mL
